The text below walks through data of ChEMBL document CHEMBL5528076, “Development of Selective Pyrido[2,3-d]pyrimidin-7(8H)-one-Based Mammalian STE20-Like (MST3/4) Kinase Inhibitors” (J Med Chem, 2024).

The structures appear in SMILES notation. Activity calls are given as the source filed them. The calls are words filed in the database; no cut-off is given here.

Test [1] concerns the target T1, Serine/threonine-protein kinase 3 (Homo sapiens, UniProt Q13188).
T1 sequence (Q13188 whole entry): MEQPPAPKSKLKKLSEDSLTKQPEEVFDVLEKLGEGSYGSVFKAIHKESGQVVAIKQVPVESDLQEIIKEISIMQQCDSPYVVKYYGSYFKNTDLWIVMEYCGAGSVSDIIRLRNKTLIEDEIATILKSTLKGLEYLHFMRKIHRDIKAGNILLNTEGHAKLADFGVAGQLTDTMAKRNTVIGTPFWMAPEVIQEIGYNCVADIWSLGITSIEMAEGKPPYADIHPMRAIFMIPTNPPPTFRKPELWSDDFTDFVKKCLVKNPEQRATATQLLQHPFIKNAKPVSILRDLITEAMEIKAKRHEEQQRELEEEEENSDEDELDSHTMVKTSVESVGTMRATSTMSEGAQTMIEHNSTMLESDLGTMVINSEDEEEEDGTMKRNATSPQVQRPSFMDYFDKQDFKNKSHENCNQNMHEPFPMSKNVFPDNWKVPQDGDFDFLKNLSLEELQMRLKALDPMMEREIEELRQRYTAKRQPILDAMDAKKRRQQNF
Description: Inhibition of MST2 (unknown origin)

The target of test [2] is T2, Serine/threonine-protein kinase 4 (Homo sapiens, UniProt Q13043).
T2 sequence (Q13043 whole entry): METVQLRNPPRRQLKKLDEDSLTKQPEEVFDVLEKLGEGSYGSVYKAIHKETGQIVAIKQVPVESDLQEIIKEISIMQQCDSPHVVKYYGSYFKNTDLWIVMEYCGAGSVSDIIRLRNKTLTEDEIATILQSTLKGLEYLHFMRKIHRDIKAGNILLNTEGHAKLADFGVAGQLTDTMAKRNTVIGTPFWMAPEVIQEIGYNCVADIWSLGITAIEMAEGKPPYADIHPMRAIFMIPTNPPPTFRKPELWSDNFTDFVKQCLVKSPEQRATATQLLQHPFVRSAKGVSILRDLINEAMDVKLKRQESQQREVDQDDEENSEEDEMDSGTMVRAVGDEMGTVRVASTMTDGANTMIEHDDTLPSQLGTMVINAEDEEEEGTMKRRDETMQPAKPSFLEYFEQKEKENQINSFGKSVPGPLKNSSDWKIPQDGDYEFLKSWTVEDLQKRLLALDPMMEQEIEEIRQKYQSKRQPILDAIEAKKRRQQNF
Description: Inhibition of MST1 (unknown origin)

Test [3] relates to HCT-116. The test can be described thus: Antiproliferative activity against human HCT-116 cells assessed as reduction in cell viability at 10 uM incubated for 6 to 72 hrs by Hoechst33342 staining based analysis. Format: functional. Conditions: time 6-72 hrs.
Test [4] has as its system HCT-116. The test is described as follows: Induction of apoptosis in human HCT-116 cells assessed as increase in cell count at 10 uM incubated for 48 hrs by Hoechst33342 staining based analysis. Format: functional.
In test [5] the test system is HCT-116. The test is described as follows: Induction of cell cycle arrest in human HCT-116 cells assessed as accumulation of cells at G2/M phase incubated for 72 hrs by FUCCI based analysis. Format: functional. The conditions noted are these: dose 10.0 µM.

As for `CN1C(=O)c2sccc2N(C)c2nc(Nc3ccc(S(N)(=O)=O)cc3)ncc21`, the IC50 worked out at 493 nM in test [1] and 162 nM in test [2].

Consider `N#Cc1cccc(-c2c[nH]c3ncnc(N4CCOCC4)c23)c1`, for which, in test [3], the outcome was inactive. For the same compound, in test [4], the outcome was Active. Besides, in test [5], the Activity result was “Dose-Dependent Effect”.
